This note sets out measurements from patent publication US20250057813A1, “APOPTOSIS RELATED PROTEIN IN THE TGF-BETA SIGNALING PATHWAY (ARTS) MIMETIC COMPOUNDS, COMPOSITIONS, METHODS AND USES THEREOF IN INDUCTION OF APOPTOSIS” (Carmel-Haifa University Economic Corporation Ltd., priority 2022, published 2025).

For one assay, the system named is HeLa cells. The experiment in a line: Western blot of HeLa cells exposed to B3. It counts as cell-based. Conditions: 30 μM, 2-24 hrs. Here is the method:
(§1) The cells were lysed in WCE (whole-cell extract) buffer [25 mM Hepes, pH 7.7, 0.3M NaCl, 1.5 mM MgCl2, 0.2 mM EDTA, 0.1% Triton X-100, 100[μg/ml PMSF and protease inhibitor cocktail (Roche, 1:100 dilution)]. 100 μg of total cell protein, measured with the Bio-Rad Protein Assay kit, were separated by SDS-PAGE (12%) followed by transfer for 2 h on to a nitrocellulose membrane. The membrane was blocked with 5% (w/v) non-fat dried skimmed milk powder in PBS supplemented with 0.05% Tween20 (PBS-T) for 1 hour at room temperature (R.T). Membrane was then probed with primary antibody at 4° C. overnight. Next, the membrane was incubated with the appropriate HRP-conjugated secondary antibody, for 1 hour at R.T. and washed 15 min ×3 with PBS-T. WesternBright ECL (Advansta) was added to the membrane for 2 min and analyzed using ImageQuant LAS-4000 analyzer (GE Healthcare Life Sciences) & “ImageQuant LAS-4000” software (GE Healthcare Life Sciences). Densitometry analysis was performed using ImageQuant total lab 7 (GE Healthcare Life Sciences), image analysis software.
In general terms: A western blot detects proteins with antibodies after separation by electrophoresis.

The subject of assay [1] is A375 human melanoma cells. In words: SDS PAGE and Western blot analysis of A375 cells. Format: cell-based. The method, then:
as §1
(§2) Cells were lysed in whole-cell extract buffer [25 mM HEPES, pH 7.7, […], 1.5 mM MgCl2, 0.2 mM EDTA, 0.1% Triton X-100, 100 μg/ml phenylmethylsulfonyl fluoride (PMSF) and protease inhibitor cocktail (Roche, 1:100 dilution)] and placed on ice for 30 min (vortexing once after 15 min). After 30 minutes, the samples were centrifuged at 13,000×g for 10 minutes at 4° C. The supernatants containing total protein were measured for protein concentration using Bio-Rad Protein Assay Dye Reagent Concentrate Kit. 40 to […] was separated by sodium dodecyl sulfate-polyacrylamide gel electrophoresis (SDS-PAGE) (12% or 7.5%), followed by transfer to a nitrocellulose membrane. The membranes were blocked with 5% (w/v) non-fat dried skimmed milk powder in PBS supplemented with 0.05% Tween-20 (PBS-T) for 1 h at RT. Next, primary antibodies were added at 4° C. overnight or for 2 h at room temperature. Membranes were then incubated with secondary antibody for 1 h at RT and washed three times for 15 min each with PBS-T. Western Bright ECL (Advansta) was added to the membrane for 30-60 s and analyzed using Image Quant LAS-4000 (GE Healthcare Life Sciences) and Image Quant LAS-4000 software (GE Healthcare Life Sciences).

Assay [2] deals with T1, binding between XIAP and p53 (Homo sapiens, UniProt P98170).
T1 construct: expressed in transfected cells; host or cells: WT MEFs
T1 sequence (P98170 whole entry): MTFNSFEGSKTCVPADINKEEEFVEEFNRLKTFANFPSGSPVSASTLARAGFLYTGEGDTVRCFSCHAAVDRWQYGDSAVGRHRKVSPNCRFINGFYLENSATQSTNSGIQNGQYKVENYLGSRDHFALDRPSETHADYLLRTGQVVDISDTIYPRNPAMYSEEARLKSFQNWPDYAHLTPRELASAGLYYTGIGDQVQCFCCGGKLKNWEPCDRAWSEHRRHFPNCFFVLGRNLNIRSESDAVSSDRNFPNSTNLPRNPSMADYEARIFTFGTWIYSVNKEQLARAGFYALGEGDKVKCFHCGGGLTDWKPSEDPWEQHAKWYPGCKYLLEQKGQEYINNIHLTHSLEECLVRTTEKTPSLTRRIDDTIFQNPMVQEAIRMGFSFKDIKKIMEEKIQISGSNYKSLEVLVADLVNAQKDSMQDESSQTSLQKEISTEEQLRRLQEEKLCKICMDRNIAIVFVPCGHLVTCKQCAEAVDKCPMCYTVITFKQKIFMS
In words: BiFC assay in WT MEFs (VN-p53 and VC-XIAP). It counts as cell-based. The conditions noted are these: 20 μM B3 for 18 hours. An excerpt: The split-Venus BiFC system was used to evaluate close proximity indicating possible direct binding between pairs of proteins. The proteins were fused either to the N-terminal part of the VenusYFP (yellow fluorescence protein) (VN) or the C-terminal domain (VC). All Venus fragments were fused to the C-terminal sequences of these proteins. The Jun and bFos pair was used as a positive control (p.c.), and the Jun and bFosdeltaZTP pair was used as a negative control (n.c.). A vector encoding dsRed was used as a transfection efficiency marker.

In assay [3] the test system is SKMEL-5, A-375, UACC257, Hela wt, Mefs. In words: Western blot, B3 apoptotic effect on different cell lines. It counts as cell-based. The conditions noted are these: 20 μM, 24 h. The method, then:
as §1

In another assay the test system is PBMC. The experiment in a line: Viability assay (SRB), normal cell control. Format: cell-based, Human. Conditions: 72 hrs, 10 mM to 0.1 μM. Here is the method:
The assay was performed at six tenfold serial dilutions of the B3 compounds: 10 mM (stock), 1 mM, 100 μM, 10 μM, 1 μM and 0.1 μM. The screen was performed on 93 cancer cell lines and PBMC as normal cell control. The B3 compound was incubated with the cells for 72 hours. The following cancer cell lines were screened:
The Sulforhodamine B (SRB) assay was used as a screening method. Briefly, the method relies on the property of SRB, to bind stoichiometrically to proteins under mild acidic conditions and to be extracted under basic conditions. Thus, the amount of bound dye can be used as a proxy for cell mass, which can then be extrapolated to measure cell proliferation. The protocol can be divided into four main steps: preparation of treatment, incubation of cells with treatment of choice, cell fixation and SRB staining and absorbance measurement.

The subject of assay [4] is CCRF-CEM (acute lymphoblastic leukemia) cell line. In words: Western blot analysis of CCRF-CEM. It counts as cell-based. Conditions: B3 alone, 24 hrs. The method, then: as §1
The subject of assay [5] is WT MEFs and Sept4/ARTS KO MEFs cells. The experiment in a line: Western blot of WT MEFs and Sept4/ARTS KO MEFs. It counts as cell-based, mouse. Conditions: 20 or 40 μM, 24 hours. The method, then: as §2
A further assay concerns the target XIAP (Homo sapiens, UniProt P98170). In words: Nano-DSF binding assay (Crelux). Conditions: binding curve, dose response. A general note: In DSF a fluorescence change marks the thermal transition of the protein.
The next assay has as its target T2, XIAP-BIR3 (Homo sapiens, UniProt P98170).
T2 construct: fused on or other part: NT650 fluorescent dye attached covalently by maleimide coupling; the protein is otherwise untagged
In words: MST binding of B3 to fluorescently labelled recombinant XIAP. Conditions: spread printed +/−11 μM, read-out: Kd, direct binding to XIAP-BIR3. Here is the method:
Microscale thermophoresis (MST) binding assays were performed by CreLux, a WuXi AppTech company in Germany, using recombinant ARTS, XIAP, Bcl-2 and cIAP1 proteins. Specifically, for performing experiments with untagged XIAP, a fluorescent label (NT650) was covalently attached to the protein (Maleimide coupling). The labelling was performed in a buffer containing 50 mM HEPES pH 7.0, 150 mM NaCl and 0.005% Tween-20.
Microscale thermophoresis (MST) binding assays were performed by CreLux, a WuXi AppTech company in Germany, using recombinant ARTS and XIAP proteins. Specifically, for performing experiments with untagged XIAP, a fluorescent label (NT650) was covalently attached to the protein (Maleimide coupling). The labeling was performed in a buffer containing 50 mM HEPES pH 7.0, 150 mM NaCl, and 0.005% Tween-20. A detailed description is provided in the Supplementary Materials and methods.

A further assay concerns Jurkat cell lines. The experiment in a line: PrestoBlue viability assay. It counts as cell-based. The conditions noted are these: 20 μM B3 vs 12.5 μM Etoposide, 24 h.

T2 sequence (P98170 241-356 limits assumed): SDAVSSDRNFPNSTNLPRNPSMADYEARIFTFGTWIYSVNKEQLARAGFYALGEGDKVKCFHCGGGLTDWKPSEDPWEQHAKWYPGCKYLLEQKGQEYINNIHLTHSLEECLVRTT
Sequence of XIAP (P98170 whole entry): as the sequence (P98170 whole entry) above

Regarding `Cn1ccnc1C(=O)c1ccc(NC(=O)C(=O)N[C@H](CO)Cc2ccccc2)cc1` [B3, (S)-N1-(1-hydroxy-3-phenylpropan-2-yl)-N2-(4-(1-methyl-1H-imidazole-2-carbonyl)phenyl)oxalamide], the anti-apoptotic markers entry with HeLa cells is recorded as “reduction”. Besides, in assay [1] (20 μM, 24 hrs), the Bcl-2 levels result is “clearly reduced”, the XIAP levels entry is “clearly reduced”, the “cleavage of Caspase 3” value was “increased” and the “cleavage of Caspase 9” value is “increased”. In addition, the “cleavage of PARP” value in assay [1] (20 μM, 24 hrs) was “increased”. For the same compound, in assay [1] (20, 30, 40 μM B3, 24 hours), the MDM2 levels entry is on record as “reduction”, the XIAP levels entry was “reduction”, the “cPARP or caspase3” value is reported as “elevation” and the p53 levels entry was “elevation”. For the same compound, the ARTS levels result in assay [1] (B3 in combined treatment with ABT-199, 24 hrs) was “downregulated”. Also, the Bcl-2 levels result in assay [1] (six hours of B3 treatment) is “decreased”. Also, the “binding between VN-p53 and VC-XIAP” value in [2] is “disrupted”. The “cleavage of apoptotic markers Caspase3 and PARP” value in [3] is recorded as “induced cleavage”. Moreover, in the assay on PBMC, the “sensitivity of normal cell control to B3” value is on record as “resistant”. Also, the induction of apoptosis entry in assay [4] is reported as “sufficient to induce apoptosis”. In assay [5], the XIAP levels entry was “downregulates” and the p53 levels entry is “upregulate”. Besides, the “direct binding to XIAP” value on XIAP is “binds with high affinity”. Moreover, the Kd on XIAP-BIR3 worked out at 36 µM. For the same compound, the “cell death compared with Etoposide” value in the assay on Jurkat cell lines was “as efficient as the strong pro-apoptotic chemotherapeutic agent Etoposide”.

By Kd is commonly meant the free concentration of one partner at which half of the binding sites on the other are occupied at equilibrium, for simple one-to-one binding.
